According to the supplement of paper PMC11451515:

System: SEM cells
Assay: cell viability relative to DMSO control; higher = less cytotoxic
Conditions: 48 h
Procedure, shortened: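 Viability is expressed as a percentage of DMSO wells within each plate, and cell-free wells serve as background. Seeding densities in the 1536-well plates (5 μl) were 500 cells/well for NOMO1 or SEM leukemia cells and 1000 cells/well for P12-Ichikawa. Each line was adapted for at least four passages in each medium. Library compounds in DMSO were pin-dosed at 47 μM to 0.79 nM (11 points, threefold), and CellTiter-Glo One luminescence was read after 48 h at 37°C.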

[1] = HPLM + 10% dialyzed FBS, 0.000781 µM
[2] = HPLM + 10% dialyzed FBS, 0.00234 µM
[3] = HPLM + 10% dialyzed FBS, 0.00702 µM
[4] = HPLM + 10% dialyzed FBS, 0.0211 µM
[5] = HPLM + 10% dialyzed FBS, 0.0632 µM
[6] = HPLM + 10% dialyzed FBS, 0.19 µM
[7] = HPLM + 10% dialyzed FBS, 0.569 µM
[8] = HPLM + 10% dialyzed FBS, 1.71 µM
[9] = HPLM + 10% dialyzed FBS, 5.12 µM
[10] = HPLM + 10% dialyzed FBS, 15.4 µM
[11] = HPLM + 10% dialyzed FBS, 46.1 µM
[12] = RPMI 5 mM glucose + 10% FBS, 0.000781 µM
[13] = RPMI 5 mM glucose + 10% FBS, 0.00234 µM
[14] = RPMI 5 mM glucose + 10% FBS, 0.00702 µM
[15] = RPMI 5 mM glucose + 10% FBS, 0.0211 µM
[16] = RPMI 5 mM glucose + 10% FBS, 0.0632 µM
[17] = RPMI 5 mM glucose + 10% FBS, 0.19 µM
[18] = RPMI 5 mM glucose + 10% FBS, 0.569 µM
[19] = RPMI 5 mM glucose + 10% FBS, 1.71 µM
[20] = RPMI 5 mM glucose + 10% FBS, 5.12 µM
[21] = RPMI 5 mM glucose + 10% FBS, 15.4 µM
[22] = RPMI 5 mM glucose + 10% FBS, 46.1 µM
[23] = RPMI 5 mM glucose + 10% dialyzed FBS, 0.000781 µM
[24] = RPMI 5 mM glucose + 10% dialyzed FBS, 0.00234 µM
[25] = RPMI 5 mM glucose + 10% dialyzed FBS, 0.00702 µM
[26] = RPMI 5 mM glucose + 10% dialyzed FBS, 0.0211 µM
[27] = RPMI 5 mM glucose + 10% dialyzed FBS, 0.0632 µM
[28] = RPMI 5 mM glucose + 10% dialyzed FBS, 0.19 µM
[29] = RPMI 5 mM glucose + 10% dialyzed FBS, 0.569 µM
[30] = RPMI 5 mM glucose + 10% dialyzed FBS, 1.71 µM
[31] = RPMI 5 mM glucose + 10% dialyzed FBS, 5.12 µM
[32] = RPMI 5 mM glucose + 10% dialyzed FBS, 15.4 µM
[33] = RPMI 5 mM glucose + 10% dialyzed FBS, 46.1 µM

Compound | cell viability [1] | cell viability [2] | cell viability [3] | cell viability [4] | cell viability [5] | cell viability [6] | cell viability [7] | cell viability [8] | cell viability [9] | cell viability [10] | cell viability [11] | cell viability [12] | cell viability [13] | cell viability [14] | cell viability [15] | cell viability [16] | cell viability [17] | cell viability [18] | cell viability [19] | cell viability [20] | cell viability [21] | cell viability [22] | cell viability [23] | cell viability [24] | cell viability [25] | cell viability [26] | cell viability [27] | cell viability [28] | cell viability [29] | cell viability [30] | cell viability [31] | cell viability [32] | cell viability [33]
O=C\1N(N\C=C1[N]2C=CN=N2)C3=NC=NC(=C3)N4CCOCC4 | 58.1% | 74.2% | 66.2% | 69.5% | 56% | 46.9% | 20.1% | 36.9% | 21.7% | 15.8% | 12.1% | 56.6% | 102% | 108% | 95.5% | 46.8% | 28.6% | 13.6% | 13.3% | 19.2% | 14.5% | 16.8% | 52.3% | 77.4% | 74.1% | 69.3% | 66.5% | 42.8% | 17.3% | 32.8% | 19.5% | 19.9% | 16.7%
CC[C@@]1(O)C(=O)OCC/2=C1/C=C3\N(CC4=CC5=CC(=CC=C5N=C34)O)C2=O | 120% | 128% | 120% | 104% | 58.8% | 20.9% | 18.9% | 8.26% | 7.73% | 6.07% | 5.91% | 79.1% | 81.5% | 73% | 70.2% | 22.6% | 11.6% | 9.45% | 6.47% | 5.43% | 3.87% | 4.1% | 99.6% | 112% | 114% | 93.1% | 43% | 17.9% | 13% | 7.18% | 6.51% | 6.28% | 4.96%
COC(=O)C1C2CC3c4[nH]c5cc(OC)ccc5c4CCN3CC2CC(OC(=O)c2cc(OC)c(OC)c(OC)c2)C1OC (stereo not drawn) | 116% | 120% | 119% | 125% | 130% | 119% | 141% | 115% | 116% | 117% | 105% | 97.2% | 120% | 102% | 107% | 113% | 102% | 104% | 112% | 94.8% | 85.2% | 91.4% | 116% | 110% | 113% | 105% | 104% | 134% | 124% | 135% | 128% | 82.1% | 86.6%
NCCCCNCCCN | 74.8% | 80.2% | 75.4% | 89.7% | 97.8% | 99.5% | 87.6% | 99.2% | 101% | 19.7% | 3.89% | 107% | 73.5% | 97% | 93.9% | 108% | 110% | 99.1% | 106% | 106% | 43.5% | 4.26% | 88% | 83.7% | 94.2% | 75.6% | 106% | 103% | 93.7% | 99.4% | 91.9% | 21.4% | 4.65%
C=CCc1cccc(/C=N/NC(=O)CN2CCN(Cc3ccccc3)CC2)c1O | 124% | 122% | 128% | 137% | 132% | 124% | 144% | 89.4% | 103% | 29.3% | 8.81% | 124% | 114% | 124% | 122% | 131% | 114% | 131% | 105% | 95.4% | 54.8% | 8.05% | – | – | – | – | – | – | – | – | – | – | –
CN1\N=C(N)/C2=C[N]([C@@H]3O[C@H](CO[P](O)(O)=O)[C@@H](O)[C@H]3O)C4=C2C1=NC=N4 | 77.9% | 79.8% | 42.7% | 45.6% | 38% | 25.8% | 13.2% | 8.14% | 4.15% | 2.69% | 2.9% | 107% | 109% | 63.8% | 65.2% | 50.3% | 35.3% | 16.7% | 7.7% | 6.79% | 3.71% | 3.23% | 88.7% | 76% | 40% | 38.9% | 21.1% | 13.4% | 8.31% | 6.58% | 4.28% | 3.22% | 2.94%
CCC(=O)N[C@H]1CC[C@H](C(=O)N(C)c2ccc(-c3nc4ccccc4o3)cc2)C1 | 75.9% | 68% | 99.7% | 94.2% | 99.8% | 104% | 101% | 89% | 110% | 115% | 96.4% | 83.3% | 51.8% | 78.4% | 89.5% | 84.7% | 101% | 99.9% | 82.2% | 74.7% | 74.2% | 40% | 91.9% | 51.8% | 83.5% | 98.9% | 98.4% | 97% | 96% | 102% | 94.7% | 91% | 45.3%
CC(C)c1cnn2c(NCc3ccccc3)cc(NCCCCCCN)nc12 | 121% | 126% | 121% | 117% | 111% | 111% | 119% | 120% | 118% | 106% | 84.9% | 89.8% | 77.3% | 105% | 88.1% | 82.3% | 93.9% | 83.5% | 96.9% | 88.2% | 76.3% | 77.4% | 108% | 109% | 120% | 121% | 98.4% | 117% | 112% | 115% | 96.4% | 114% | 81.8%
